Test results taken from patent US20090226956A1, “RUNX-MEDIATED ACTION OF NUCLEAR RECEPTORS AND UTILITIES THEREOF” (University of Southern California, priority 2008, published 2009).

Assays:
Runx2 [1] = details: same cells as Raloxifene; cited from earlier work
Runx2 [2] = test: 6XOSE2-luc Runx2 reporter luciferase assay, COS7 cells transfected with Runx2 and ERα; type: cell-based, human
Text: (§1) FIG. 1. ERα inhibits Runx2. (A,B) COS7 cells were transiently transfected with the Runx reporter 6XOSE2-luc (firefly) along with expression vectors encoding human Runx2 (A), Runx1 (B), ERα, and/or ERβ as indicated. […] In each experiment, the firefly luciferase results were corrected for the expression of a co-transfected CMV-renilla luciferase construct (internal control), except for Panel A, where the renilla luciferase values are shown in the inset graph. […] All data are presented as mean values±SEM, with n=4 dish replicates of a representative experiment, repeated at least 3 times.
(§2) FIG. 6. Various effects of SERM-bound ERα on Runx2. […] (B, C) COS7 cells were transfected with Runx2 and its 6XOSE2-luc reporter (B), or with ERE-luc (C) along with expression vectors coding for the indicated ER isoforms or fragments. […] All data are presented as mean values±SEM, with n=4 dish replicates of a representative experiment, repeated at least 3 times.
(§3) Cells were seeded at a density of 10,000 per well in 96-well plates and grown in 5% charcoal-stripped serum (CSS)-containing phenol red-free medium for 24 h. The indicated plasmids (50 ng reporter, 52 ng total) were transfected using ‘LTX and Plus reagent’ according to manufacture's specification (Invitrogen, Carlsbad, Calif.). Equimolar amounts of the empty vectors pcDNA 3.1 and pSG5 were used as controls, and the pCAT-basic promoter-less plasmid was used as ‘filler’ DNA. Under these conditions the total amounts of promoter equivalents (molar) and DNA mass (ng) were the same in all wells of a particular experiment. As an internal control, 0.01 ng of tk-Renilla-luc or CMV-renilla-luc (Promega, Madison, Wis.) was used for correction of transfection efficiency. Cells were subsequently treated with vehicle (EtOH, 0.01%) or the indicated ligands for 24 h. Luciferase activity was determined using the dual-assay luciferase kit (Promega, Madison, Wis.).
COS7 cells were transiently transfected with the indicated expression vectors along with a reporter for either Runx2 (6XOSE2-luciferase) or the classical transcriptional activation activity of ER (ERE-luciferase).

Runx2 [3] = test: 6XOSE2-luc Runx2 reporter luciferase assay, COS7 cells transfected with Runx2 and ERβ; type: cell-based, human; details: COS7, 6XOSE2-luc, 10 nM, 24 h
Text: as §1
as §3, with “As an internal control, 0.01 ng of tk-Renilla-luc or CMV-renilla-luc (Promega, Madison, Wis.) was used for correction of transfection efficiency. Cells were subsequently treated with vehicle (EtOH, 0.01%) or the indicated ligands for 24 h.” left out

Runx2 [4] = test: 6XOSE2-Luc Runx2 reporter luciferase assay, COS7 cells transfected with Runx2 and AR; type: cell-based, human
Experimental: As COS7 cells were transiently transfected in 96 well format with the Runx2 reporter 6XOSE2-Luc (firefly luciferase) along with expression vectors encoding human Runx2, AR, and GR as indicated. […] B. Parallel sets of COS7 cell cultures were transfected with either the AR reporter MMTV-Luc or the Runx2 reporter 6XOSE-Luc, along with 1 ng each of AR and Runx2 expression plasmids. […] Bar graphs represent luciferase assays, in which the reporters OSE2-Luc (left panel) and MMTV-Luc (right panel), were transfected with expression plasmids encoding wild type AR (WT) or a mutant AR lacking the AF1 domain (ΔAF1) as indicated.
We examined the effect of AR on the transcriptional potential of Runx2 using transient transfection reporter assays COS7 cells, which express neither transcription factor, were transfected with plasmids encoding Runx2 and AR, along with the 6XOSE2-Luc reporter, in which luciferase is controlled by six copies of the OSE2 Runx2 binding site (53).
Since AR is a potent transcription factor, we investigated if its transactivation function was required for repressing Runx2. […] MMTV-Luc and 6XOSE2-Luc were used as reporters for monitoring the transactivation and Runx2 repression functions of AR, respectively, with equal amounts of each of AR and Runx2 expression plasmids co-transfected in both assays.
Unless otherwise stated, these hormones were applied at a final concentration of 10 nM in 0.001% ethanol as the vehicle.
(§6) Transient transfection, luciferase, co-IP and ChIP—These assays were performed essentially as previously described (34, 51).

[5] = test system: endogenous Runx2 in PC3-AR cells; details: DHT 24 hrs; not in PC3-GFP cells
Text: B. PC3 cell that had been stably transduced with lentiviruses encoding AR or GFP were transiently transfected with the MMTV-Luc (left) or 6XOSE2-Luc (middle) reportersk, followed by luciferase assay, or, they were subjected to RT-qPCR analysis of the OC gene (right). […] Mean±SEM, n=4.
To study the influence of AR on Runx2 activity and on the Runx2 target gene OC in PCa cells, AR was first stably introduced into PC3 cells by retroviral infection. The transduced cells, designated PC3-AR, presumably resemble PCa cells that endogenously express both Runx2 and wild type AR. These cells were transiently transfected with the MMTV-Luc or the 6XOSE2-Luc reporter plasmid. PC3-GFP cells, transduced with a GFP-encoding retrovirus, were used as control.
Quantitative real time RT-PCR—Total RNA was isolated using Aurum Total RNA® kit (Bio-Rad, Hercules, Calif.) following the manufacturer's recommendations. One microgram of total RNA was reverse-transcribed using the Superscript III kit (Invitrogen) and the cDNA was subjected to real-time PCR amplification (RTqPCR) using iQ™ SYBR Green Supermix (Bio-Rad).

Runx2 in SaOS-2 cells = details: DHT 24 hrs
Experimental: Data are representative of at least three independent experiments.
as §6

[6] = test system: Runx2 occupancy of the endogenous OSE2 site; details: Day-9 MC3T3-E1, DHT four hours, ChIP
Experimental: Occupancy was quantified by qPCR of an OC promoter fragment containing the OSE2 site or a fragment of the insulin promoter as control.
To test whether the DNA-binding exclusion model operates in vivo, we investigated whether AR interferes with binding of Runx2 to its chromatin-embedded OSE2 element at the OC promoter in MC3T3-E1 cells.
A slight modification was introduced for immunoprecipitation using MC3T3-E1 and PC3-AR cells. These cells were plated in a 150 mm dish in phenol-red free media supplemented with 5% CSS. The MC3T3-E1 cell culture medium was further supplemented, commencing at confluence, with 50 μg/ml ascorbic acid and 150 mM β-glycerophosphate.

Runx1 = details: COS7, 6XOSE2-luc (FIG. 25)
Experimental: The ability of sex steroids and their receptors to repress Runx1 was determined by transient transfection assays of COS7 cells as described earlier for Runx2.
We tested the effects of ERαX, ERβ, AR and GR on Runx1 activity using the same assay employed for Runx2.

[7] = test system: endogenous Runx proteins in PC3 cells; details: 6XOSE2-luciferase, 10 nM DHT
Text: Interaction between AR and Runx proteins in PC3 cells that express endogenous Runx proteins. A. EMSA assessing Runx protein activity using an OSE2 ^32P-labeled probe. Whole cell extracts from PC3 cells were shifted and supershifted with Runx1 and Runx2 antibodies respectively and successfully competed with WT 10× and 100×OSE2 unlabeled probe. […] Confocal of endogenous Runx (fluorescein) proteins and AR (rhodamine) under transfected or untransfected AR conditions.

[8] = test system: Runx2 in MDA-MB-231 cells; test: 6XOSE2-luc Runx2 reporter assay in MDA-MB-231 breast cancer cells expressing ERα; type: cell-based, human; details: ERα expressed; E2 10 nM, OHT 100 nM, ICI 182780 100 nM
Text: as §2
(§4) COS7 cells were maintained in Dulbeco Modified Eagle Medium (DMEM) and 5% fetal bovine serum (FBS). The mouse osteoblastic cell line MC3T3-E1 was maintained in α-MEM and 10% FBS. Runx-reporter osteoblasts were generated by stable transfection of MC3T3-E1 cells with the 6XOSE2-luc reporter construct using the calcium phosphate coprecipitation method and hygromycin ([…]) as the selection drug. Resistance to hygromycin was conferred by cotransfection of the pCEP plasmid (1:15 molar ratio). To support development of the osteoblast phenotype, cells were treated with 50 μg/ml ascorbic acid and […] β-glycerophosphate commencing at confluence. The human breast cancer cell lines MDA-MB-231, T47D, and MCF7 were maintained in DMEM and 5% FBS.
(§5) Cells were seeded at a density of 10,000 per well in 96-well plates and grown in 5% charcoal-stripped serum (CSS)-containing phenol red-free medium for 24 h. […] Luciferase activity was determined using the dual-assay luciferase kit (Promega, Madison, Wis.).

Runx2 in T47D cells = test: 6XOSE2-luc Runx2 reporter assay in T47D breast cancer cells; type: cell-based, human; details: 100 nM
Text: as §2, §4, §5

Runx2 in MCF7 cells = test: 6XOSE2-luc Runx2 reporter assay in MCF7 breast cancer cells; type: cell-based, human; details: 100 nM
Text: as §2, §4, §5

ERα = target: T1, ERα (Homo sapiens, UniProt P03372); test: ERE-luc ER reporter luciferase assay in COS7 cells; type: cell-based; details: 100 nM (FIG. 6C)
T1 sequence (P03372 1-595): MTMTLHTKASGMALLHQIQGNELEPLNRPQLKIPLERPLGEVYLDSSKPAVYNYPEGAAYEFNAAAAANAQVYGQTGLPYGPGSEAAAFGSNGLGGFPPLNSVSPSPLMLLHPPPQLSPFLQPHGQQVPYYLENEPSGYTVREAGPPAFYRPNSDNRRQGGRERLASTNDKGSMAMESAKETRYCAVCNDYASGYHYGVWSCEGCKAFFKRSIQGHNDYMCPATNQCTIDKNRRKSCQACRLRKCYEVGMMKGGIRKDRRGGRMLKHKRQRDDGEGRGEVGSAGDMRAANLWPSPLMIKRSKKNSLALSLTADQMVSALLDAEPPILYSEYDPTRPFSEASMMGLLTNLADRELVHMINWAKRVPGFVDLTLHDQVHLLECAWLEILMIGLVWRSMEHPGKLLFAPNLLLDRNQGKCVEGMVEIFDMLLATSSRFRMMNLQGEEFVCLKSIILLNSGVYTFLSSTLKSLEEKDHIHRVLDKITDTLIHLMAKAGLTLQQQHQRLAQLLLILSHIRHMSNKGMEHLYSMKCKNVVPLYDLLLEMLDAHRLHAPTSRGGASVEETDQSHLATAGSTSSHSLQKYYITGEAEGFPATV

ERα/Runx2 complexes = ERα/Runx2 complexes (Homo sapiens, UniProt P03372); details: COS7; E2 10 nM, OHT 100 nM, ICI 182780 100 nM; 24 h
Sequence of ERα/Runx2 complexes (Q13950 1-507 isoform Q13950-2 partner, one chain of several): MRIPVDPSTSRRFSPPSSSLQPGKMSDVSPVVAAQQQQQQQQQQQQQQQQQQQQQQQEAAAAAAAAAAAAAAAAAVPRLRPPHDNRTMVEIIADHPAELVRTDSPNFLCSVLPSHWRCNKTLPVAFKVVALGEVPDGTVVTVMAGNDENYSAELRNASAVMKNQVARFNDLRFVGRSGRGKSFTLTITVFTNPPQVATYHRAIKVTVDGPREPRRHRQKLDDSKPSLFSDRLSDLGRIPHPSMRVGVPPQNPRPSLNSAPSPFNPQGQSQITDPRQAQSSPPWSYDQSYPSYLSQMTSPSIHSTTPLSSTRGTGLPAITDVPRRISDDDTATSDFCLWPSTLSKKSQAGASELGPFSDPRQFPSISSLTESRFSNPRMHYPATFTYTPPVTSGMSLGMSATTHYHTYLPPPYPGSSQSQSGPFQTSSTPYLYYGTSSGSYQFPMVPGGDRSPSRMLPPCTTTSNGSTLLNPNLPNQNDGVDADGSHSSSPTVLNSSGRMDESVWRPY
Experimental: Cells were seeded at a density of 300,000 per well in six-well plates and grown in 5% CSS-containing phenol red-free medium for 24 h. Cells were transfected when indicated, and 24 h later they were lysed in a 50 mM Tris-HCl buffer (pH 7.4) containing 150 mM NaCl, 1 mM EDTA, 1% Triton X-100, and fresh Protease Inhibitors Cocktail (1%; Sigma, St. Louis, Mo.). […] The remaining lysate was immunoprecipitated with approximately 3 μg of the specified antibody and 30 μl Protein-G beads (Amersham Biosciences Freiburg, Germany) and washed three times for 5 min each with the same buffer, followed by centrifugation at 4,000 rpm for 1 min. […] Input and immunoprecipitates were analyzed by Western blot analysis.

AR DBD = AR DBD (Homo sapiens, UniProt P10275 P10275:540-647); test: EMSA; GST-AR-DBD alone forms no complex with OSE2; details: tags: GST fusion, E. coli BL21(DE3); label: 32P
Sequence of AR DBD (P10275 540-647, one chain of several): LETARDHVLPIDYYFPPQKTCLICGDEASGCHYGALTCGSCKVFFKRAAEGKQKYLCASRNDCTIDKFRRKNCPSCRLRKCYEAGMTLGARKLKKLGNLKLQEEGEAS
Text: Where indicated, the binding reaction also contained purified GST, GST-AR-DBD, GST-AR-DBD^A573D (see FIG. 14G), or anti-Runx2 specific antibodies, either native (n) or denaturated by boiling (b). […] Arrow indicates Runx2/OSE2 complex.
The source for Runx2 was MC3T3-E1 cell extract and recombinant GST-AR-DBD was purified from E. coli.

[9] = COS7, 6XOSE2-Luc, 10 nM, 24 hrs

Experimental for MC3T3-E1 cells: Staining with 4′,6-diamidino-2-phenylindole (DAPI) demarcates the cell nucleus.
A sub-line that had been stably transfected with the 6XOSE2-Luc reporter (51) was employed to simultaneously test the influence of AR on pure Runx2 activity (luciferase) and on OC gene expression.
Confocal immunofluorescence microscopy—Cells were grown on 18 mm^2 cover-slips in 6-well plates for 24 hrs in growth medium with CSS. […] Cells were mounted using Vectashield Hard Set mounting medium with DAPI (Burlingame, Calif.) and viewed using an LSM 510 Zeiss confocal microscope at 60× magnification. Images were processed using the software program Image J.

In the case of `CC/C(=C(\c1ccccc1)c1ccc(OCCN(C)C)cc1)c1ccccc1` [Tamoxifene], the “Effect on Runx2 activity in COS7 cells (Khalid et al., 2008, FIG. 6B)” value (Runx2 [1]) is given as “small inhibitory effect”.

With `C[C@]12CC[C@@H]3c4ccc(O)cc4CC[C@H]3[C@@H]1CC[C@@H]2O` [E2, estradiol] the “Inhibition of Runx2 activity” value (Runx2 [2]; COS7, 6XOSE2-luc, in the presence of ERα, E2 10 nM, 24 h (FIG. 1A)) was 76% and the “Effect on Runx2 activity in the presence of ERβ” value (Runx2 [3]) was “did not inhibit”.

For `CC(=O)O[C@]1(C(C)=O)CC[C@H]2[C@@H]3C[C@H](C)C4=CC(=O)CC[C@]4(C)[C@H]3CC[C@@]21C` [MPA], the “Effect of MPA-stimulated AR on Runx activities” value (Runx2 [4]; COS7, 6XOSE2-luciferase, Runx2 and Runx1 (FIG. 21)) was “inhibited Runx activities”.

For `C[C@]12CCC(=O)C[C@@H]1CC[C@@H]1[C@@H]2CC[C@]2(C)[C@@H](O)CC[C@@H]12` [DHT, dihydrotestosterone], the “Effect on Runx2 activity in the absence of AR” value (Runx2 [4]; [9]) was “did not affect”, the “Effect on Runx2 activity in the presence of AR” value (Runx2 [4]; [9]) was “repressed Runx2 activity to basal levels” and the “Effect on Runx2 activity in the presence of GR” value (Runx2 [4]; COS7, 6XOSE2-Luc, DHT 10 nM) was “did not alter”. For the same molecule, the “6XOSE2-Luc reporter activity in PC3-AR cells” value [5] was “strong repression”, the “OC expression (RT-qPCR) in PC3-AR cells” value [5] was “strongly inhibited” and the “6XOSE2-Luc luciferase activity in SaOS-2 cells” value (Runx2 in SaOS-2 cells) was “inhibited luciferase activity”. For the same molecule, the “Expression of both 6XOSE2-Luc and OC on day 9” value (MC3T3-E1 cells; MC3T3-E1, DHT chronically since confluence or 24 hrs prior to harvest) was “strongly inhibited”, the “AR protein levels in early and late MC3T3-E1 cultures” value (MC3T3-E1 cells; immunofluorescence, day 1 and day 9, DHT 24 hrs) was “strongly induced” and the “Decrease of Runx2 occupancy of the endogenous OSE2 site” value [6] was 2.4 fold. For the same molecule, the “Effect of AR+DHT on Runx1 activity” value (Runx1) was “robustly inhibited” and the “Endogenous Runx-mediated activity in PC3 cells with transfected AR” value [7] was “also inhibited”.

For `CC/C(=C(\c1ccc(O)cc1)c1ccc(OCCN(C)C)cc1)c1ccccc1` [OHT, hydroxytamoxifen], the “Effect on Runx2 when bound to the ERαDBD-LBD” value (Runx2 [2]; COS7, 6XOSE2-luc, ERαDBD-LBD fragment, 100 nM) was “stimulatory effect”, the “Effect on Runx2 activity” value (Runx2 [2]; COS7, 6XOSE2-luc, full-length ERα, 100 nM, 24 h) was “slightly inhibited” and the “Effect on 6XOSE2 Runx2 reporter in MDA-MB-231 cells” value [8] was “as strongly as E2”. The “Effect on Runx2 in T47D cells” value (Runx2 in T47D cells) was “uniformly inhibitory” and the “Effect on Runx2 in MCF7 cells” value (Runx2 in MCF7 cells) was “uniformly inhibitory”.

With `C[C@]12CC[C@@H]3c4ccc(O)cc4C[C@@H](CCCCCCCCC[S+]([O-])CCCC(F)(F)C(F)(F)F)[C@H]3[C@@H]1CC[C@@H]2O` (stereo partly shown) [ICI 182780] the “Stimulation of Runx2 activity” value (Runx2 [2]; COS7, 6XOSE2-luc, ERα, ICI 182780 100 nM, 24 h (FIG. 6B)) was 3.1 fold, the “Partial agonist effect on an ERE-containing template” value (ERα) was “weak” and the “Effect on 6XOSE2 Runx2 reporter in MDA-MB-231 cells” value [8] was “slight if any inhibitory effect”. The “Effect on Runx2 in T47D cells” value (Runx2 in T47D cells) was “slightly stimulated”, the “Effect on Runx2 in MCF7 cells” value (Runx2 in MCF7 cells) was “slightly stimulated” and the “ERα/Runx2 interaction in co-IP (formation of ERα/Runx2 complexes)” value (ERα/Runx2 complexes) was “strongly induced”.

With `O=C(c1ccc(OCCN2CCCCC2)cc1)c1c(-c2ccc(O)cc2)sc2cc(O)ccc12` [Raloxifene] the “Effect on Runx2 activity in COS7 cells (Example V)” value (Runx2 [2]; 6XOSE2-luciferase, 100 nM Raloxifene, 24 hrs) was “small effect is stimulatory”.

B1: OSE2 probe (dsDNA)
DNA 1: AGCTGCAATCACCAACCACAGCA
DNA 2: TGCTGTGGTTGGTGATTGCAGCT
B1: no binding (AR DBD).
